# Test results: patent US11512053B2, “Arginine methyltransferase inhibitors and uses thereof” (priority 2013, dated 2022)
# Like-named read-outs stand apart in the source and are kept apart here.
# Experiments:
# [1] = system: mono-methyl arginine in RKO cells; experiment: RKO Methylation Assay, In Cell Western (ICW) for detection of mono-methyl arginine and DNA content; type: cell-based; settings: Homo sapiens, RKO, 72 h, RKO cells, read-out: In Cell Western EC30
# Text: RKO adherent cells were purchased from ATCC (American Type Culture Collection), Manassas, Va., USA. DMEM/Glutamax medium, penicillin-streptomycin, heat inactivated fetal bovine serum, 0.05% trypsin and D-PBS were purchased from Life Technologies, Grand Island, N.Y., USA. Odyssey blocking buffer, 800 CW goat anti-rabbit IgG (H+L) antibody, and Licor Odyssey infrared scanner were purchased from Licor Biosciences, Lincoln, Nebr., USA. Mono-methyl arginine antibody was purchased from Cell Signaling Technology, Danvers, Mass., USA. Methanol was purchased from VWR, Franklin, Mass., USA. 10% Tween 20 was purchased from KPL, Inc., Gaithersburg, Md., USA. DRAQ5 was purchased from Biostatus Limited, Leicestershire, UK.
# RKO adherent cells were maintained in growth medium (DMEM/Glutamax medium supplemented with 10% v/v heat inactivated fetal bovine serum and 100 units/mL penicillin-streptomycin) and cultured at 37° C. under 5% CO2.
# Cell treatment, In Cell Western (ICW) for detection of mono-methyl arginine and DNA content. […] Compound (100 nL) from a 96-well source plate was added directly to 384 well cell plate. Plates were incubated at 37° C., 5% CO2 for 72 hours. After three days of incubation, plates were brought to room temperature outside of the incubator for ten minutes and blotted on paper towels to remove cell media. 50 μL of ice cold 100% methanol was added directly to each well and incubated for 30 min at room temperature. After 30 min, plates were transferred to a Biotek EL406 plate washer and washed 2 times with 100 μL per well of wash buffer (1×PBS). Next 60 μL per well of Odyssey blocking buffer (Odyssey Buffer with 0.1% Tween 20 (v/v)) were added to each plate and incubated 1 hour at room temperature. Blocking buffer was removed and 20 μL per well of primary antibody was added (mono-methyl arginine diluted 1:200 in Odyssey buffer with 0.1% Tween 20 (v/v)) and plates were incubated overnight (16 hours) at 4° C. Plates were washed 5 times with 100 μL per well of wash buffer. […] The plates were washed 5 times with 100 μL per well wash buffer then 2 times with 100 μL per well of water. Plates were allowed to dry at room temperature then imaged on the Licor Odyssey machine which measures integrated intensity at 700 nm and 800 nm wavelengths. Both 700 and 800 channels were scanned.
# Calculations: First, the ratio for each well was determined by:
# Each plate included fourteen control wells of DMSO only treatment (minimum activation) as well as fourteen control wells for maximum activation treated with 20 μM of a reference compound. The average of the ratio values for each control type was calculated and used to determine the percent activation for each test well in the plate. Reference compound was serially diluted three-fold in DMSO for a total of nine test concentrations, beginning at 20 μM. Percent activation was determined and EC30 curves were generated using triplicate wells per concentration of compound.
# [2] = biological target: full-length human PRMT6 (Flag- and His-tagged) (Homo sapiens, UniProt Q96LA8); experiment: PRMT6 Biochemical Assay (3H-SAM Flashplate, peptide substrate)
# Text: General Materials. S-adenosylmethionine (SAM), S-adenosylhomocysteine (SAH), bicine, Tween20, dimethylsulfoxide (DMSO), bovine skin gelatin (BSG), sodium butyrate and Tris(2-carboxyethyl)phosphine hydrochloride solution (TCEP) were purchased from Sigma-Aldrich at the highest level of purity possible. ^3H-SAM was purchase from American Radiolabeled Chemicals with a specific activity of 80 Ci/mmol. 384-well streptavidin Flashplates were purchased from PerkinElmer.
# Substrates. Peptide representative of human histone H4 residues 36-50 was synthesized with an N-terminal linker-affinity tag motif and a C-terminal amide cap by 21st Century Biochemicals. The peptide was purified by high-performance liquid chromatography (HPLC) to greater than 95% purity and confirmed by liquid chromatography mass spectrometry (LC-MS). The sequence was Biot-Ahx-[…]-amide and contained a monomethylated lysine at position 44 (SEQ ID NO.:5).
# Molecular Biology: Full-length human PRMT6 (NM_018137.2) transcript clone was amplified from an HEK 293 cDNA library, incorporating a flanking 5′ sequence encoding a FLAG tag ([…]) (SEQ ID NO.:6) fused directly to Ser 2 of PRMT6 and a 3′ sequence encoding a hexa His sequence (HHHHHH) (SEQ ID NO.:17) fused directly to Asp 375. The amplified gene was subcloned into pFastBacMam (Viva Biotech).
# Protein Expression. Recombinant baculovirus were generated according to Bac-to-Bac kit instructions (Life Technologies). […] Infections were carried out at 37° C. for 48 hours, harvested by centrifugation, and stored at −80° C. for purification.
# Protein Purification. […] Column was washed with 20 mM imidazole in the same buffer and Flag-PRMT6-His was eluted with 150 mM imidazole. Pooled fractions were dialysed against buffer N^1-A and further purified by anti-flag M2 affinity chromatography. Flag-PRMT6-His was eluted with 200 ug/ml FLAG peptide in the same buffer. Pooled fractions were dialysed in 20 mM Tris, 150 mM NaCl, 10% glycerol and 5 mM β-mercaptoethanol, pH 7.8. The purity of recovered protein was 95%.
# General Procedure for PRMT6 Enzyme Assays on Peptide Substrates. The assays were all performed in a buffer consisting of 20 mM Bicine (pH=7.6), 1 mM TCEP, 0.005% BSG, and 0.002% Tween 20, prepared on the day of use. Compounds in 100% DMSO (1 ul) were spotted into a polypropylene 384-well V-bottom plates (Greiner) using a Platemate Plus outfitted with a 384-channel head (Thermo Scientific). DMSO (1 ul) was added to Columns 11, 12, 23, 24, rows A-H for the maximum signal control and 1 ul of SAH, a known product and inhibitor of PRMT6, was added to columns 11, 12, 23, 24, rows I-P for the minimum signal control. A cocktail (40 ul) containing the PRMT6 enzyme was added by Multidrop Combi (Thermo-Fisher). The compounds were allowed to incubate with PRMT6 for 30 min at room temperature, then a cocktail (10 ul) containing SAM and peptide was added to initiate the reaction (final volume=51 ul). The final concentrations of the components were as follows: PRMT6 was 1 nM, ^3H-SAM was 200 nM, non-radiolabeled SAM was 250 nM, peptide was 75 nM, SAH in the minimum signal control wells was 1 mM, and the DMSO concentration was 2%. The assays were stopped by the addition of non-radiolabeled SAM (10 ul) to a final concentration of 400 uM, which dilutes the ^3H-SAM to a level where its incorporation into the peptide substrate is no longer detectable. 50 ul of the reaction in the 384-well polypropylene plate was then transferred to a 384-well Flashplate and the biotinylated peptides were allowed to bind to the streptavidin surface for at least 1 hour before being washed once with 0.1% Tween20 in a Biotek ELx405 plate washer. The plates were then read in a PerkinElmer TopCount plate reader to measure the quantity of ^3H-labeled peptide bound to the Flashplate surface, measured as disintegrations per minute (dpm) or alternatively, referred to as counts per minute (cpm). […]
# [3] = 72 hours compound incubation, mono-methyl arginine signal normalised to DNA content (DRAQ5), percent activation vs 20 μM reference compound
# [4] = 72 hours incubation, mono-methyl arginine signal normalised to DNA content, single experiment or average of multiple experiments
# [5] = read-out: Biochemical IC50 PRMT6
# [6] = single experiment or average of multiple experiments, read-out: Biochemical IC50 PRMT6
# Sequence of full-length human PRMT6 (Flag- and His-tagged) (Q96LA8 with tags, fused parts or gaps): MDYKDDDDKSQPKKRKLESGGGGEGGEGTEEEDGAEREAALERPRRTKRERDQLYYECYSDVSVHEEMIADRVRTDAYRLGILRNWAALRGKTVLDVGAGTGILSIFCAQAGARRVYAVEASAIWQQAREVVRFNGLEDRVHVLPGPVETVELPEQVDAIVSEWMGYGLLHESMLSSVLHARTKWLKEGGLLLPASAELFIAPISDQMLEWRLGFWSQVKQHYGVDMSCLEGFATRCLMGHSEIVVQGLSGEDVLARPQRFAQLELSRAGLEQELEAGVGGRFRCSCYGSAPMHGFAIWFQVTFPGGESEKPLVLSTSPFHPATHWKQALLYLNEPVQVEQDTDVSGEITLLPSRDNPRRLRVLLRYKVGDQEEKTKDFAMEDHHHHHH
"IC50 [2, 5]","IC50 [2, 6]",IC50 ([2]; Biochemical IC50 PRMT6),"IC50 ([2]; Biochemical IC50 PRMT6, single experiment or average of multiple experiments)",SMILES,"EC30 [1, 3]","EC30 [1, 4]"
101 to 1000 nM,101 nM,–,–,"CNCCN(C)Cc1c[nH]nc1[C@H]1CC[C@H](O)C2(CCCCC2)C1 (racemic) [Compound 184, (1S,4S)-4-[4-({methyl[2-(methylamino)ethyl]amino}methyl)-1H-pyrazol-3-yl] spiro[5.5]undecan-1-ol]",< 3000 nM,458 nM
< 100 nM,87.7 nM,–,–,"CNCCN(C)Cc1c[nH]nc1[C@H]1CC[C@@H](O)C2(CCCCC2)C1 (single isomer, unassigned) [Compound 183]",< 3000 nM,319 nM
< 100 nM,10 nM,–,–,CN(CCN)Cc1c[nH]nc1CCc1ccccc1 [Compound 9],3010 to 12000 nM,5610 nM
< 100 nM,40.5 nM,–,–,CNCCN(C)Cc1c[nH]nc1[C@H]1CC[C@]2(CCC(C)(C)O2)CC1 [Compound 104],< 3000 nM,11.7 nM
< 100 nM,13.5 nM,–,–,"CNCCN(C)Cc1c[nH]nc1[C@H]1CC[C@@]2(CCOC2(C)C)CC1 [Compound 106, Methyl [2-(methylamino)ethyl]([3-[(5R,8R)-1,1-dimethyl-2-oxaspiro[4.5]decan-8-yl]-1H-pyrazol-4-yl]methyl)amine]",< 3000 nM,22.7 nM
101 to 1000 nM,130 nM,–,–,CNCCN(C)Cc1c[nH]nc1[C@H]1CC[C@@H](N(CC2CCOCC2)C(=O)CC(C)C)CC1 [Compound 107],–,–
101 to 1000 nM,326 nM,–,–,CCC(=O)N(CC1CCOCC1)[C@H]1CC[C@@H](c2n[nH]cc2CN(C)CCNC)CC1 [Compound 108],3010 to 12000 nM,8550 nM
101 to 1000 nM,124 nM,–,–,CCC(=O)N(CC1CCOCC1)[C@H]1CC[C@H](c2n[nH]cc2CN(C)CCNC)CC1 [Compound 109],< 3000 nM,2480 nM
< 100 nM,29.4 nM,–,–,CNCCN(C)Cc1c[nH]nc1C1CCC(=O)N(CCc2ccccc2)C1 (stereo not shown) [Compound 110],< 3000 nM,2550 nM
< 100 nM,45.5 nM,–,–,CNCCN(C)Cc1c[nH]nc1[C@H]1CC[C@]2(CCN(Cc3ccc(OCCOC)cc3)C2=O)CC1 [Compound 111],< 3000 nM,913 nM
< 100 nM,57.4 nM,–,–,CNCCN(C)Cc1c[nH]nc1C1CCCC(COCCOC)C1 (stereo not shown) [Compound 112],–,–
< 100 nM,66.9 nM,–,–,CNCCN(C)Cc1c[nH]nc1C1CCCC(COCCC(O)CO)C1 (stereo not shown) [Compound 113],3010 to 12000 nM,7350 nM
< 100 nM,92.6 nM,–,–,CNCCN(C)Cc1c[nH]nc1C1CCC(N(CC(C)C)C(=O)CC2CCOCC2)CC1 (stereo not shown) [Compound 114],–,–
< 100 nM,62.7 nM,–,–,CNCCN(C)Cc1c[nH]nc1C1CCC(=O)N(Cc2ccccc2)C1 (stereo not shown) [Compound 115],< 3000 nM,18.9 nM
–,–,< 100 nM,18.7 nM,CNCCN(C)Cc1c[nH]nc1[C@H]1CC[C@H](OCCOc2ccc(OCCOC)cc2)CC1 [Compound 116],3010 to 12000 nM,8900 nM
< 100 nM,96.2 nM,–,–,CNCCN(C)Cc1c[nH]nc1C1CCC(=O)N(CCC(C)C)C1 (stereo not shown) [Compound 117],–,–
> 10000 nM,> 10000 nM,–,–,CNCCN(C)Cc1c[nH]nc1C1CC(OC(C)C)CC(OC(C)C)C1 (stereo not shown) [Compound 118],3010 to 12000 nM,9570 nM
1010 to 3000 nM,2750 nM,–,–,CCOCC1CC(COCC)CC(c2n[nH]cc2CN(C)CCNC)C1 (stereo not shown) [Compound 119],< 3000 nM,77.3 nM
< 100 nM,42.8 nM,–,–,CNCCN(C)Cc1c[nH]nc1[C@H]1CC[C@@]2(CCN(Cc3ccc(OCCOC)cc3)C2=O)CC1 [Compound 120],< 3000 nM,9.8 nM
< 100 nM,97.7 nM,–,–,CNCCN(C)Cc1c[nH]nc1C1CCC2(CC1)OC(C)CC(C)O2 (stereo not shown) [Compound 121],–,–
> 10000 nM,> 10000 nM,–,–,CNCCN(C)Cc1c[nH]nc1C1CC(OCC(C)C)CC(OCC(C)C)C1 (stereo not shown) [Compound 122],–,346 nM
< 100 nM,18 nM,–,–,CNCCN(C)Cc1c[nH]nc1[C@H]1CC[C@]2(CCN(Cc3ccc(F)cc3)C2=O)CC1 [Compound 123],< 3000 nM,44 nM
< 100 nM,26.2 nM,–,–,CNCCN(C)Cc1c[nH]nc1[C@H]1CC[C@]2(CCN(CC(C)C)C2=O)CC1 [Compound 124],< 3000 nM,21.4 nM
< 100 nM,4.2 nM,–,–,CNCCN(C)Cc1c[nH]nc1C1CCC2(CC1)CCC(F)(F)CC2 [Compound 130],–,–
> 10000 nM,> 10000 nM,–,–,CCCOC1CC(OCCC)CC(c2n[nH]cc2CN(C)CCNC)C1 (stereo not shown) [Compound 131],–,–
1010 to 3000 nM,1210 nM,–,–,CNCCN(C)Cc1c[nH]nc1C1CC(COC)CC(COC)C1 (stereo not shown) [Compound 138],–,–
< 100 nM,57.8 nM,–,–,CNCCN(C)Cc1c[nH]nc1C1CCC2(CC1)NC(=O)N(C)C2=O (stereo not shown) [Compound 170],–,–
101 to 1000 nM,107 nM,–,–,CNCCN(C)Cc1c[nH]nc1[C@H]1CC[C@H](OCCOc2ccc(OC)cc2)CC1 [Compound 186],–,–
